Laboratory results: the Deep4Chem optical property database
“And” between values parts separate entries of the source, which are not always exact repeats. Equal entries are not always repeated. One block for each compound: values may come before it.

Experiment: photoluminescence quantum yield (fraction); solvent given as SMILES

SMILES: CCCCCCC1(CCCCCC)c2cc(-c3nc(-c4ccc5c(c4)C(CCCCCC)(CCCCCC)c4cc(N6c7ccccc7Oc7ccccc76)ccc4-5)nc(-c4ccc5c(c4)C(CCCCCC)(CCCCCC)c4cc(N6c7ccccc7Oc7ccccc76)ccc4-5)n3)ccc2-c2ccc(N3c4ccccc4Oc4ccccc43)cc21
photoluminescence quantum yield (in C1CCOC1): 0.02
photoluminescence quantum yield (in CCCCCC): 0.52
photoluminescence quantum yield (in Cc1ccccc1): 0.45
photoluminescence quantum yield (in ClCCl): 0.01

photoluminescence quantum yield (in CC#N): 0.31
photoluminescence quantum yield (in CCCCCC): 0.64
SMILES: CN(c1ccccc1)c1ccc(/C=C/c2ccccc2)cc1

SMILES: N#Cc1c(-n2c3ccccc3c3ccccc32)c(-n2c3ccccc3c3ccccc32)c(-n2c3ccccc3c3ccccc32)c(-n2c3ccccc3c3ccccc32)c1-n1c2ccccc2c2ccccc21
photoluminescence quantum yield (in Cc1ccccc1): 0.75 and 0.7
photoluminescence quantum yield (in c1cc(-c2cccc(-n3c4ccccc4c4ccccc43)c2)cc(-n2c3ccccc3c3ccccc32)c1): 0.65

photoluminescence quantum yield (in ClCCl): 0.18
SMILES: Clc1ccc(N2c3sc4ccccc4c3Sc3c2sc2ccccc32)cc1

SMILES: O=c1ccc2cc3c(cc2o1)OCC3
photoluminescence quantum yield (in CC(C)O): 0.23
photoluminescence quantum yield (in CCO): 0.23
photoluminescence quantum yield (in CCOCC): 0.06
photoluminescence quantum yield (in CO): 0.3
photoluminescence quantum yield (in O): 0.83

SMILES: N#C/C(=C\c1ccncc1)c1nc(-c2ccccc2)cs1
photoluminescence quantum yield (in CC#N): 0.263
photoluminescence quantum yield (in CCO): 0.6
photoluminescence quantum yield (in CN(C)C=O): 0.406
photoluminescence quantum yield (in CS(C)=O): 0.124
photoluminescence quantum yield (in Cc1ccccc1): 0.346
photoluminescence quantum yield (in ClCCl): 0.086

photoluminescence quantum yield (in ClCCl): 0.52
SMILES: c1ccc(C2=C(c3ccccc3)c3cccc4c5c(cc(c34)O2)=NC2CCCCC2N=5)cc1 (stereo not drawn)

photoluminescence quantum yield (in C1CCOC1): 0.059
SMILES: CN(C)c1ccc(C(=Cc2ccc(C=O)cc2)c2ccc(N(C)C)cc2)cc1

SMILES: c1ccc(-c2c3c(c(-c4ccccc4)c4cc5ccccc5cc24)Cc2c(c(-c4ccccc4)c4cc5ccccc5cc4c2-c2ccccc2)C3)cc1
photoluminescence quantum yield (in CC#N): 0.27
photoluminescence quantum yield (in CCCCCC): 0.28
photoluminescence quantum yield (in CO): 0.3
photoluminescence quantum yield (in Cc1ccccc1): 0.61
photoluminescence quantum yield (in ClCCl): 0.21

photoluminescence quantum yield (in CCCCCC): 0.7
photoluminescence quantum yield (in CO): 0.78
photoluminescence quantum yield (in CS(C)=O): 0.6
photoluminescence quantum yield (in ClC(Cl)Cl): 0.92
photoluminescence quantum yield (in ClCCl): 0.94
photoluminescence quantum yield (in O): 0.05
SMILES: O=S(=O)(/N=c1\oc2cccc3c4c(-c5ccccc5)oc5cccc(c(c1-c1ccccc1)c23)c54)C(F)(F)F

SMILES: CC1(C)c2ccccc2-c2cc3c4cc(-n5c6ccccc6c6ccccc65)ccc4n(-c4ccc(-c5nc(-c6ccccc6)nc(-c6ccccc6)n5)cc4)c3cc21
photoluminescence quantum yield (in O=P(c1ccccc1)(c1ccccc1)c1ccccc1Oc1ccccc1P(=O)(c1ccccc1)c1ccccc1): 0.84

photoluminescence quantum yield (in C1COCCO1): 0.95
photoluminescence quantum yield (in CC#N): 0.86
photoluminescence quantum yield (in CO): 0.66
photoluminescence quantum yield (in ClCCl): 0.9
SMILES: COC(=O)c1nc2c(N(C)C)nc(N(C)C)nc2n1Cc1ccccc1

photoluminescence quantum yield (in CO): 0.05
photoluminescence quantum yield (in CS(C)=O): 0.02
photoluminescence quantum yield (in O): 0.02
SMILES: CCCN1/C(=C/C=C(/C=C/c2sc3ccccc3[n+]2CCC)c2ccc([N+](=O)[O-])cc2)Sc2ccccc21

SMILES: CC1=[N+]2C(=C(c3ccc(N4CCCCC4)cc3)c3ccc(C)n3[B-]2(F)F)C=C1
photoluminescence quantum yield (in C1CCCCC1): 0.33
photoluminescence quantum yield (in C1CCOC1): 0.01 and 0.008
photoluminescence quantum yield (in CC#N): 0.003 and 0.002
photoluminescence quantum yield (in CC(=O)C(C)(C)C): 0.004
photoluminescence quantum yield (in CC(C)=O): 0.002
photoluminescence quantum yield (in CCCCCC): 0.341
photoluminescence quantum yield (in CCOC(C)=O): 0.006 and 0.005
photoluminescence quantum yield (in CO): 0.005 and 0.003
photoluminescence quantum yield (in Cc1ccccc1): 0.13
photoluminescence quantum yield (in ClC(Cl)Cl): 0.077

photoluminescence quantum yield (in C1CCOC1): 0.82
SMILES: COC(=O)c1cc2c(cc3ccc4cccc5ccc2c3c45)[nH]1

photoluminescence quantum yield (in ClC(Cl)Cl): 0.49
SMILES: F[B-]1(F)OC(c2ccc(Br)cc2)=Cc2ccc3ccccc3[n+]21

SMILES: O=C1c2ccccc2-c2ccc(N3CCOCC3)c3cccc1c23
photoluminescence quantum yield (in C1CCOC1): 0.15
photoluminescence quantum yield (in CCCCCC): 0.33
photoluminescence quantum yield (in CCO): 0.12
photoluminescence quantum yield (in CCOC(C)=O): 0.3
photoluminescence quantum yield (in CN(C)C=O): 0.14
photoluminescence quantum yield (in CO): 0.12
photoluminescence quantum yield (in Cc1ccccc1): 0.64
photoluminescence quantum yield (in ClC(Cl)(Cl)Cl): 0.18
photoluminescence quantum yield (in ClC(Cl)Cl): 0.53
photoluminescence quantum yield (in ClCCl): 0.53
photoluminescence quantum yield (in c1ccccc1): 0.68

SMILES: Cc1cc(C)cc(C)c1
photoluminescence quantum yield (in C1CCCCC1): 0.27

photoluminescence quantum yield (in CC1CCCCC1): 0.0006
SMILES: c12c3c4c5c1c1c6c7c2c2c8c3c3c9c4c4c%10c5c5c1c1c6c6c%11c%12c%13c%14c%15c%16c%17c%14c%14c%18c%13c%11c1c1c5c%10c5c(c%14c%10c%17c%11c%13c%16c%14c%16c%15c%12c%12c%16c(c2c7c%126)c2c8c3c(c%13c%142)c2c9c4c5c%10c%112)c%181

photoluminescence quantum yield (in ClCCl): 0.59
SMILES: C(=C\c1cc(-c2ccc3ccccc3c2)c(/C=C/c2ccc(N(c3ccccc3)c3ccccc3)cc2)cc1-c1ccc2ccccc2c1)/c1ccc(N(c2ccccc2)c2ccccc2)cc1

photoluminescence quantum yield (in C1CCOC1): 0.07
photoluminescence quantum yield (in CC#N): 0.02
photoluminescence quantum yield (in CCCCCC): 0.41
SMILES: CC1=N/C(=C\c2ccc(C#N)c(N(C)C)c2)C(=O)N1C

photoluminescence quantum yield (in CCO): 0.31
SMILES: CC(C)Nc1cc2c(cc1F)c(=O)c1cc(F)c(NC(C)C)cc1n2C

photoluminescence quantum yield (in C1CCOC1): 0.00084
SMILES: CCCCC1(CCCC)c2cc(C#Cc3ccc(C=C4c5ccccc5C=Cc5ccccc54)cc3)ccc2-c2ccc(C#Cc3ccc(C=C4c5ccccc5C=Cc5ccccc54)cc3)cc21

SMILES: CC1=CC(c2ccc(N(C)C)cc2)=[N+]2C1=Nc1c(C)cc(-c3ccc(N(C)C)cc3)n1[B-]2(F)F
photoluminescence quantum yield (in C1CCOC1): 0.13
photoluminescence quantum yield (in CS(C)=O): 0.01
photoluminescence quantum yield (in Cc1ccccc1): 0.21

photoluminescence quantum yield (in CC1CCCCC1): 0.01
photoluminescence quantum yield (in CC#N): 0.21
photoluminescence quantum yield (in CO): 0.4
SMILES: COC(=O)C(Cc1ccc2oc(-c3ccncc3)nc2c1)NC(=O)OC(C)(C)C (stereo not drawn)

photoluminescence quantum yield (in CO): 0.25
SMILES: Oc1ccccc1-c1nc(-c2ccccc2)c(-c2ccccc2)[nH]1

photoluminescence quantum yield (in ClCCl): 0.158
SMILES: c1ccc(-n2nc(-c3ccc(-c4ccc5c(c4)C(c4ccccc4)(c4ccccc4)c4ccccc4-5)cc3)nc2-c2ccccn2)cc1

photoluminescence quantum yield (in CCO): 0.132
SMILES: Cc1ccc(CN2/C(=C/C=C3\CCCC(/C=C/C4=[N+](Cc5ccc(C)cc5)c5ccccc5C4(C)C)=C3Cl)C(C)(C)c3ccccc32)cc1

SMILES: N#Cc1cc(N2c3ccccc3Oc3ccccc32)c(N2c3ccccc3Oc3ccccc32)cc1C#N
photoluminescence quantum yield (in c1ccc2c(c1)c1ccccc1n2-c1ccc(-c2ccc(-n3c4ccccc4c4ccccc43)cc2)cc1): 0.064

SMILES: CN(C)c1ccc2c(c1)Cc1ccccc1-2
photoluminescence quantum yield (in C1CCOC1): 0.39
photoluminescence quantum yield (in C1COCCO1): 0.38
photoluminescence quantum yield (in CC(=O)N(C)C): 0.4
photoluminescence quantum yield (in CCCCCC): 0.25
photoluminescence quantum yield (in CCCCCCO): 0.22
photoluminescence quantum yield (in CCCCCO): 0.19
photoluminescence quantum yield (in CCCCO): 0.19
photoluminescence quantum yield (in CCCO): 0.21
photoluminescence quantum yield (in CCO): 0.2
photoluminescence quantum yield (in CCOC(C)=O): 0.4
photoluminescence quantum yield (in CCOCC): 0.31
photoluminescence quantum yield (in CO): 0.2
photoluminescence quantum yield (in CS(C)=O): 0.42
photoluminescence quantum yield (in O): 0.12
photoluminescence quantum yield (in OC1CCCCC1): 0.22

photoluminescence quantum yield (in C1CCCCC1): 0.0001
photoluminescence quantum yield (in C1CCOC1): 0.0004
photoluminescence quantum yield (in CC#N): 0.0003
photoluminescence quantum yield (in CO): 0.0003
photoluminescence quantum yield (in CS(C)=O): 0.0002
photoluminescence quantum yield (in ClCCl): 0.0009
photoluminescence quantum yield (in O): 0.0002
SMILES: CC1=N/C(=C\c2ccc(N(C)C)cc2)C(=O)N1C

photoluminescence quantum yield (in CC#N): 0.579
SMILES: N#Cc1ccc(-n2nc(C#N)c(N3CCCC3)n2)cc1

photoluminescence quantum yield (in ClCCl): 0.86
SMILES: COC(=O)C1=C(C(=O)OC)C2=C[C@H]3c4ccccc4[C@]2([Se]1)c1ccccc13

SMILES: CCCCN(CCCC)c1ccc(/C=C/c2ccc(-c3ccc(/C=C/c4ccc(N(CCCC)CCCC)cc4)cc3)cc2)cc1
photoluminescence quantum yield (in CS(C)=O): 0.89
photoluminescence quantum yield (in Cc1ccccc1): 0.81
